Results reported in paper PMC7551609 (Viruses, 2020).
“Also recorded” adds a separate entry of the source.

Legend:
[1] = tested on: ZIKV MR-766 strain; assay: Viral inhibition assay, post-treatment, old World strain, Vero cells; assay type: cell-based, Zika virus
[2] = tested on: ZIKV Paraiba/2015; assay: Viral inhibition assay, post-treatment, human A549 cells; assay type: cell-based, Zika virus
[3] = tested on: ZIKV PRVABC59 strain; assay: Viral inhibition assay, post-treatment, new World strain, Vero cells; assay type: cell-based, Zika virus
[4] = tested on: A549 cells; assay: MTT cell viability in A549 cells; assay type: cell-based, human; conditions: highest concentration used 50.00 µM, sentence also cites [17]
[5] = tested on: Vero cells; assay: MTT cell viability assay in Vero cells; assay type: cell-based, African green monkey; conditions: non-infected Vero cells, 36 h post-treatment
[6] = tested on: ZIKV Paraiba/2015; assay: Viral inhibition assay, post-infection treatment, Vero cells; assay type: cell-based, Zika virus
[7] = tested on: A549 cells; assay: XTT cell proliferation in A549 cells; assay type: cell-based, human; conditions: highest concentration used 50.00 µM, sentence also cites [17]
[8] = tested on: ZIKV Paraiba/2015; assay: Viral inhibition assay, pre-treatment (prophylactic), Vero cells; assay type: cell-based, Zika virus
[9] = tested on: ZIKV Paraiba/2015; assay: Viral inhibition assay, co-treatment, Vero cells; assay type: cell-based, Zika virus
[10] = tested on: Vero cells; assay: XTT cell proliferation assay in Vero cells; assay type: cell-based, African green monkey; conditions: non-infected Vero cells, 36 h post-treatment
[11] = tested on: ZIKV Paraiba/2015; assay: Growth kinetics inhibition assay (infectious viral progeny), Vero cells; assay type: cell-based, Zika virus; conditions: 24 h post-treatment and at 10 EC50 at 48 and 72 h post-treatment
[12] = pre-treatment, Paraiba/2015, Vero
[13] = co-treatment, Paraiba/2015, Vero

Substance: 2′,3′,5′-Triacetyl-6-azauridine [Azaribine]
- inhibitor category based on SI-MTT and SI-XTT ([1]; ZIKV MR-766, Vero): weak
- EC50 ([1]; old World ZIKV MR-766, Vero cells, post-treatment): 2.43 µM
- MIC ([1]; old World ZIKV MR-766 strain, read-out: MR766 MIC (maximum effective concentration)): < 11.10 µM
- A549 cells MIC (maximum effective concentration) ([2]; A549 cells): < 11.10 µM
- inhibitor category based on SI-MTT and SI-XTT ([2]; Paraiba/2015, A549 cells): weak
- EC50 ([2]; ZIKV Paraiba/2015, A549 cells, post-treatment, 36 h): 0.68 µM
- inhibitor category based on SI-MTT and SI-XTT ([3]; ZIKV PRVABC59, Vero): moderate
- PRVABC59 MIC (maximum effective concentration) ([3]; new World ZIKV PRVABC59): < 11.10 µM
- EC50 ([3]; new World ZIKV PRVABC59, Vero cells, post-treatment, 48 h): 1.12 µM
- CC50 [4]: > 50 µM
- CC50 [5]: 237 µM
- Post-treatment MIC (maximum effective concentration) ([6]; Vero cells, ZIKV Paraiba/2015, post-treatment): > 100.00 µM
- EC50 ([6]; ZIKV Paraiba/2015, Vero cells, post-infection treatment, 36 h, read-out: EC50): 1.62 µM
- inhibitor category based on SI-MTT and SI-XTT ([6]; post-treatment, Paraiba/2015, Vero): most potent; also recorded: potent
- CC50 [7]: > 50 µM
- Pre-treatment MIC (maximum effective concentration) ([8]; Vero cells, ZIKV Paraiba/2015, pre-treatment): > 100.00 µM
- EC50 ([8]; ZIKV Paraiba/2015, Vero cells, pre-treatment 12 h before infection): 47.3 µM
- inhibitor category based on SI-MTT [8, 12]: moderate
- inhibitor category based on SI-XTT [8, 12]: weakest and weak
- Co-treatment MIC (maximum effective concentration) ([9]; Vero cells, ZIKV Paraiba/2015, co-treatment): > 100.00 µM
- EC50 ([9]; ZIKV Paraiba/2015, Vero cells, co-treatment (virus pre-incubated with compound 1 h), read-out: EC50): 2.59 µM
- inhibitor category based on SI-MTT [9, 13]: Potent
- inhibitor category based on SI-MTT and SI-XTT [9, 13]: potent
- inhibitor category based on SI-XTT [9, 13]: potent
- CC50 [10]: > 1350 µM
- effect on production of infectious viral progeny (viral titers) [11]: significant effect
